Experimental data taken from patent EP4656642A1, “ESTROGEN RECEPTOR PROTEOLYSIS TARGETING CHIMERA COMPOUND AND USE THEREOF” (GAN & LEE PHARM CO., LTD, priority 2023, dated 2024).

Experiments:
Type in all cases: cell-based
ERα [1] = target: T1, ERα (Homo sapiens, UniProt P03372); test: Degradation of ERα in MCF-7 cells (immunoblotting, 4 h)
T1 sequence (P03372 1-595): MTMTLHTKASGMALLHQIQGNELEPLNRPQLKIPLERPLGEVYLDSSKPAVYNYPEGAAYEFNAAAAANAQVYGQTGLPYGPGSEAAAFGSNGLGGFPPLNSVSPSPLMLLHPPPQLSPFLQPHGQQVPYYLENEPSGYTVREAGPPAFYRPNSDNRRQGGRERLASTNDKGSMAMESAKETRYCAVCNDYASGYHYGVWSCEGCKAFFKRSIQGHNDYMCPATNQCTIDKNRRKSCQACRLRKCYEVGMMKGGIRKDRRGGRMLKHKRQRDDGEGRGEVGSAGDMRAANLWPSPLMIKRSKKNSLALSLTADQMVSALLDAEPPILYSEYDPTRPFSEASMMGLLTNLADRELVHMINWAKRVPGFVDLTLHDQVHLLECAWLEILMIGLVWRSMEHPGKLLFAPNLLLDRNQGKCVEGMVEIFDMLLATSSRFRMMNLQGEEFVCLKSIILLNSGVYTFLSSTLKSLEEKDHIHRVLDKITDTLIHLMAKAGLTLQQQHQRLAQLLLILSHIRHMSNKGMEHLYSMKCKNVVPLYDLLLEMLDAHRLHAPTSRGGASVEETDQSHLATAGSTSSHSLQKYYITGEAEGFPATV
In short: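 MCF-7 cells treated 4 h at 37°C with compounds at 0.15-1000nM final. ERα in lysates measured by immunoblot, with band grayscale normalized to an internal reference protein. Degradation rate calculated against DMSO-treated control.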

T-47D cells = test: Inhibition of cell proliferation in T-47D cells (CCK-8, 6 days); settings: 6 days of treatment, Table 3
In short: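 T-47D cells at 3,000 cells/well in RPMI 1640 with 10% FBS were exposed to a concentration series of PROTAC compounds for 6 days at 37 °C, 5% CO2. Viability was read by CCK-8, and IC50 values were derived for proliferation inhibition.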

ERα [2] = target: T1, ERα; test: Degradation of ERα in T-47D cells (immunoblotting, 4 h); design: host or cells: T-47D
In short: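 T-47D cells were treated with compound (final 0.15-1000 nM, DMSO) for 4 h at 37°C, 5% CO2. Cells were lysed in RIPA buffer with protease inhibitor, and ERα protein in the cleared lysate was measured by immunoblotting.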

MCF-7 cells = test: Inhibition of cell proliferation of MCF-7 cells (CCK-8, 9 days); settings: treated for 9 days, CCK-8 kit (Table 6)
In short: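 MCF-7 cells seeded at 800 cells/well in DMEM with 10% FBS, exposed to a range of compound concentrations for 9 days at 37°C, 5% CO2. Viability read by CCK-8; IC50 derived for proliferation inhibition.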

SMILES	Degradation rate (%) of ERα in MCF-7 cells (ERα [1]; 1nM compound)	Degradation rate (%) of ERα in MCF-7 cells (ERα [1]; 10nM compound)	IC50 (T-47D cells)	Degradation rate (%) of ERα in T-47D cells (ERα [2]; 1nM compound)	Degradation rate (%) of ERα in T-47D cells (ERα [2]; 10nM compound)	IC50 (MCF-7 cells)
CC(C(=O)N1CCC2(CC1)COc1c2ccc2c1CN(C1CCC(=O)NC1=O)C2=O)N1CCC2(CCN(c3ccc([C@@H]4c5ccc(O)cc5CC[C@@H]4c4ccccc4)cc3)CC2)C1 (stereo partly drawn) [A88]	57%	54%	1.18 nM	65%	72%	66.8 nM
C[C@@H]1Cc2c(ccc3[nH]ncc23)C(c2ccc(N3CCC4(CCN(C(=O)CN5CCC6(CC5)COc5c6ccc6c5CN(C5CCC(=O)NC5=O)C6=O)CC4)CC3)cn2)N1CC(F)(F)F (stereo partly drawn) [J15]	33%	66%	3.49 nM	49%	80%	22000 nM
O=C1CCC(N2Cc3cc4c(cc3C2=O)OC2(CC4)CN(C3CC4(C3)CC3(CCN(c5ccc([C@@H]6c7ccc(O)cc7CC[C@@H]6c6ccccc6)cc5)CC3)C4)C2)C(=O)N1 (stereo partly drawn) [H25]	-9%	-50%	6.02 nM	23%	48%	1720 nM
O=C1CCC(N2Cc3c(ccc4c3OCC43CCN(C4CCC5(CC4)CN(c4ccc([C@@H]6c7ccc(O)cc7CC[C@@H]6c6ccccc6)cc4)C5)CC3)C2=O)C(=O)N1 (stereo partly drawn) [L11]	37%	60%	4 nM	14%	69%	5 nM
O=C1CCC(N2Cc3c(ccc4c3OCC43CCN(C4CC5(C4)CC4(CCN(c6ccc([C@@H]7c8ccc(O)cc8CC[C@@H]7c7ccccc7)cc6)CC4)C5)CC3)C2=O)C(=O)N1 (stereo partly drawn) [G6]	8%	46%	4.21 nM	33%	71%	25400 nM
C[C@@H]1Cc2c([nH]c3ccccc23)[C@@H](c2c(F)cc(N3CCC4(CCN(CC(=O)N5CCC6(CC5)COc5c6ccc6c5CN(C5CCC(=O)NC5=O)C6=O)C4)CC3)cc2F)N1CC(F)F (stereo partly drawn) [A111]	39%	74%	1.2 nM	49%	82%	93.6 nM
C[C@@H]1CN(C(=O)C2(F)CCN(c3ccc([C@@H]4c5ccc(O)cc5CC[C@@H]4c4ccccc4)cc3)CC2)CCC1N1CCC2(CC1)COc1c2ccc2c1CN(C1CCC(=O)NC1=O)C2=O (stereo partly drawn) [A96]	40%	66%	3.38 nM	31%	78%	11 nM
O=C1CCC(N2Cc3c(ccc4c3OCC43CCN(C4CCN(CC5CCN(c6ccc([C@@H]7c8ccc(O)cc8CC[C@@H]7c7ccccc7)cc6)CC5)C(=O)C4)CC3)C2=O)C(=O)N1 (stereo partly drawn) [A116]	25%	4%	1.61 nM	28%	23%	25200 nM
